IC50 data for 69 molecules are collected here from ChEMBL document CHEMBL5604063, “ASAP - DENV-2 NS2B-NS3 protease fluorescence dose response” (2024).

In general, IC50 refers to the concentration that inhibits the measured activity by half.

Values joined by “and” are separate entries in the source; they are usually repeats but may differ in a detail not shown here. Equal entries are not always repeated. Some results are limits rather than exact numbers.

Assay [1] has as its target T1, Genome polyprotein (dengue virus type 2, UniProt P29990). The format is functional, Thailand/16681/1984.
Assay [2] addresses T1, Genome polyprotein. The format is functional, Thailand/16681/1984. The source holds these as a separate data set.

T1 sequence (P29990 1346-1475 limits assumed): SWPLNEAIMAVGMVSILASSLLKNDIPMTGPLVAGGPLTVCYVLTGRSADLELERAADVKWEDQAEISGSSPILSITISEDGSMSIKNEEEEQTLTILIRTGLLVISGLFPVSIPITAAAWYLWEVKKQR
T1 sequence (P29990 1476-2093 limits assumed): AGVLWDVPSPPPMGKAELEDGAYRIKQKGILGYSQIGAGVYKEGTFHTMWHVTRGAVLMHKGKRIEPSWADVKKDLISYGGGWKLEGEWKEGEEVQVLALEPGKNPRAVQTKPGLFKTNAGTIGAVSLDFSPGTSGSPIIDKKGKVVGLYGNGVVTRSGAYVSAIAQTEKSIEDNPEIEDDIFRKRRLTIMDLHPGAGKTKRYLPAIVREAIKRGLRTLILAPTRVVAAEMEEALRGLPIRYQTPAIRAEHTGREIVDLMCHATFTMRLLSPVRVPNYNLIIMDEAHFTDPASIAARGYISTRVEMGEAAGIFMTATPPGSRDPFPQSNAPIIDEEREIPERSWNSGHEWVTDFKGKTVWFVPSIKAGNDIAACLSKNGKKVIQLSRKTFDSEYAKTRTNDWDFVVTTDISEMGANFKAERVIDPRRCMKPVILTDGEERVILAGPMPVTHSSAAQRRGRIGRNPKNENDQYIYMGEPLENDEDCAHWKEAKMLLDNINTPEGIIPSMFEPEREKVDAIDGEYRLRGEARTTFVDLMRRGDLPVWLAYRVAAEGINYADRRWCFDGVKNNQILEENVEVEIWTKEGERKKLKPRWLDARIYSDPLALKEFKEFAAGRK

For the molecule `Cn1nc([C@H](C#N)Nc2cccc([C@H]3CCOC3)c2)cc1C1CC1`, the values for the IC50 in assay [1] and in assay [2] were above 99.5 µM and above 100 µM, respectively.

For `CO[C@H]1C[C@H](n2cc3c(C(=O)Nc4ccc5c(c4)CNC5)cc(Cl)cc3n2)C1`, the IC50 in assay [1] is above 99.5 µM; in assay [2] it was above 100 µM.

In the case of `O=C(Nc1ccc2c(c1)CNC2)c1cc(F)cc(-c2cn[nH]c2)c1`, the figures for the IC50 in assay [1] and in assay [2] were above 99.5 µM and 74.7 µM, respectively.

Turning to `O=C(Nc1ccc2c(c1)CNC2)c1cc(F)cc(-c2ccnc3c2CCO3)c1`, the IC50 in assay [1] is 83.8 µM; in assay [2], above 100 µM.

Turning to `COc1ccc(OC)c([C@H]2CCCN2C(=O)Nc2ccc3c(c2)CNC3)c1`, the IC50 in assay [1] was above 99.5 µM; in assay [2], above 100 µM.

Regarding `Fc1cc(CNc2ccc3c(n2)CNC3)c2cn[nH]c2c1`, the IC50 in assay [1] was above 99.5 µM; in assay [2] it was above 100 µM.

Turning to `O=C(Nc1cc(-c2cccnc2)ccn1)c1cc2n(n1)CCC2`, the IC50 was above 99.5 µM in assay [1] and above 100 µM in assay [2].

`CC(=O)N1CCCc2cc(NC(=O)c3cc(C4CC4)n(C)c3C)ccc21`: the IC50 in assay [1] is above 99.5 µM; in assay [2], above 100 µM.

Regarding `O=C(Nc1cc(-c2cccnc2)ccn1)c1csc(C[C@H]2CCCNC2)n1`, the values for the IC50 in assay [1] and in assay [2] were above 99.5 µM and above 100 µM, respectively.

As to `Cc1c(C(=O)Nc2cc(-c3cccnc3)ccn2)cnn1C1CC1`, the IC50 was above 99.5 µM in assay [1] and above 100 µM in assay [2].

In the case of `CNC(=O)[C@H](Nc1ccc2c(c1)CNC2)c1cc(Cl)cc2[nH]c(-c3ccccc3)nc12`, the IC50 in assay [1] is 49.6 µM; in assay [2], 21.2 µM and 23.2 µM.

As for `O=C(Nc1ccc2c(c1)CN[C@H]2C[C@H](O)CO)c1cc(F)cc2[nH]ncc12`, the IC50 in assay [1] was 40.1 µM; in assay [2], 23.2 µM and 22.1 µM.

As for `O=C(Nc1cc([C@H]2CCOC2)ccn1)c1cc(F)cc2[nH]ccc12`, the IC50 was above 99.5 µM in assay [1] and above 100 µM in assay [2].

Regarding `O=C(NCCCF)[C@H](Nc1ccc2c(c1)CNC2)c1cc(Cl)cc(C2CC2)c1`, the 50% inhibitory concentration (IC50) in assay [1] was above 99.5 µM; in assay [2], above 100 µM.

For the molecule `O=C(Nc1cc(-c2cccnc2)ccn1)c1cccc(C2CC2)c1`, the 50% inhibitory concentration (IC50) is above 99.5 µM in assay [1] and above 100 µM in assay [2].

For `NC[C@H]1OCCc2sc(C(=O)Nc3cc(-c4cccnc4)ccn3)cc21`, the IC50 in assay [1] was above 99.5 µM; in assay [2], above 100 µM.

Turning to `CN(C)c1nc(-c2cc(F)cc(C(=O)Nc3ccc4c(c3)CNC4)c2)cs1`, the results for the IC50 in assay [1] and in assay [2] were above 99.5 µM and above 100 µM, respectively.

`O=C(Nc1cc([C@H]2CCOC2)ccn1)c1cc(F)cc2[nH]ncc12`: the IC50 in assay [1] is above 99.5 µM; in assay [2], above 100 µM.

As for `Nc1n[nH]c2cc(C(=O)Nc3ccc4c(c3)CNC4)ccc12`, the IC50 in assay [1] was above 99.5 µM; in assay [2], above 100 µM.

With `CCCn1cc2c(C(=O)Nc3ccc4c(c3)CNC4)cc(Cl)cc2n1`, the IC50 in assay [1] is above 99.5 µM; in assay [2], above 100 µM.

`O=C(Nc1cc([C@H]2CCOC2)ccn1)c1ccc2scnc2c1`: the half-inhibitory concentration (IC50) in assay [1] was above 99.5 µM; in assay [2] it was above 100 µM.

As for `CC(C)NC(=O)[C@H](Nc1ccc2c(c1)CN(C)C2(C)C)c1cc(Cl)cc2[nH]ncc12`, the IC50 in assay [1] turned out to be 98.9 µM; in assay [2], 28.2 µM.

For the molecule `Cc1cc(C(=O)Nc2cc(-c3cccnc3)ccn2)c(C)n1C`, the IC50 in assay [1] was above 99.5 µM; in assay [2] it was above 100 µM.

Take `O=C(Nc1cc(-c2cccnc2)ccn1)c1nnc(C2CC2)s1`: the IC50 was above 99.5 µM in assay [1] and above 100 µM in assay [2].

Take `O=C(Nc1ccc2c(c1)CN[C@H]2c1ccccc1)c1cc(F)cc2[nH]ncc12`: the IC50 was above 99.5 µM in assay [1] and 65.9 µM in assay [2].

As for `O=C1CCc2c(cccc2C(=O)Nc2ccc3c(c2)CNC3)N1`, the IC50 in assay [1] was above 99.5 µM; in assay [2], above 100 µM.

In the case of `CCCCNC(=O)[C@H](Nc1ccc2c(c1)CNC2)c1cc(Cl)cc(C2CC2)c1`, the IC50 in assay [1] was above 99.5 µM; in assay [2], above 100 µM.

As for `O=C(Nc1cc(-c2cccnc2)ccn1)c1cn([C@H]2CCCNC2)nn1`, the IC50 in assay [1] was above 99.5 µM; in assay [2] it was above 100 µM.

Consider `O=S(=O)(Nc1ccc2c(c1)CNC2)c1cccc2[nH]ncc12`, for which the results for the IC50 in assay [1] and in assay [2] were above 99.5 µM and above 100 µM, respectively.

On to `O=C(NCC(F)F)[C@H](Nc1ccc2c(c1)CNC2)c1cc(Br)cc2[nH]ccc12`, for which the IC50 was above 99.5 µM in assay [1] and above 100 µM in assay [2].

Regarding `O=C1Cc2c(cccc2C(=O)Nc2cc([C@H]3CCOC3)ccn2)N1`, the IC50 in assay [1] was above 99.5 µM; in assay [2], above 100 µM.

As for `O=C(Nc1ccc2c(c1)CNC2)c1cccc2c1[C@]1(CCNC1)C(=O)N2`, the values for the IC50 in assay [1] and in assay [2] were above 99.5 µM and above 100 µM, respectively.

For the molecule `Cc1ncc(-c2cc(F)cc(C(=O)Nc3ccc4c(c3)CNC4)c2)s1`, the IC50 in assay [1] is above 99.5 µM; in assay [2], above 100 µM.

For `O=C(Nc1cc(-c2cccnc2)ccn1)c1ccc(C2CC2)cc1`, the IC50 in assay [1] was above 99.5 µM; in assay [2], above 100 µM.

Consider `O=C(Nc1ccc2c(c1)CNC2)c1cc(F)cc(-c2c[nH]c(=O)c(F)c2)c1`, for which the half-maximal inhibitory concentration (IC50) in assay [1] was above 99.5 µM; in assay [2], above 100 µM.

For the molecule `C=Cc1cc2c(cc1NC(=O)c1cc(F)cc3[nH]ncc13)CNC2`, the results for the 50% inhibitory concentration (IC50) in assay [1] and in assay [2] were 52.7 µM and 32.8 µM, respectively.

On to `COc1cc(C(=O)Nc2ccc3c(c2)CNC3)cc2cnn(C)c12`, for which the IC50 in assay [1] was above 99.5 µM; in assay [2], above 100 µM.

As for `Cc1oc(C2CC2)nc1C(=O)Nc1cc(-c2cccnc2)ccn1`, the results for the IC50 in assay [1] and in assay [2] were above 99.5 µM and above 100 µM, respectively.

In the case of `O=C(Nc1cc([C@H]2CCOC2)ccn1)c1cc(Cl)cc2[nH]ncc12`, the IC50 was above 99.5 µM in assay [1] and above 100 µM in assay [2].

With `CC(C)NC(=O)[C@H](Nc1ccc2c(c1)CNC2)c1cccc2cn[nH]c12`, the IC50 was above 99.5 µM in assay [1] and above 100 µM in assay [2].

Take `O=C(Nc1cc2c(cc1C1CC1)CNC2)c1cc(F)cc2[nH]ncc12`: the IC50 in assay [1] was determined as 70.9 µM; in assay [2], 62.5 µM.

Take `C#C[C@H](Nc1cc([C@H]2CCOC2)ccn1)c1cc(C2CC2)n(C)n1`: the values for the IC50 in assay [1] and in assay [2] were above 99.5 µM and above 100 µM, respectively.

In the case of `CC(C)NC(=O)[C@H](Nc1ccc2c(c1)CN(CC(F)F)C2)c1cc(Cl)cc2[nH]ncc12`, the IC50 is above 99.5 µM in assay [1] and above 100 µM in assay [2].

`O=C(Nc1ccc2c(c1)CNC2)c1cc(F)cc(/C=C/c2ccccc2)c1`: the IC50 is 42.1 µM in assay [1] and 57.3 µM in assay [2].

Turning to `O=C(NCC(F)F)[C@H](Nc1ccc2c(c1)CNC2)c1cc(Cl)cc2[nH]ncc12`, the 50% inhibitory concentration (IC50) in assay [1] was above 99.5 µM; in assay [2], above 100 µM.

In the case of `Cn1ncc2c(C(=O)Nc3ccc4c(c3)CNC4)cc(Cl)cc21`, the figures for the IC50 in assay [1] and in assay [2] were above 99.5 µM and above 100 µM, respectively.

Take `COCCNC(=O)[C@H](Nc1cccc([C@H]2CCOC2)c1)c1cc(F)cc2[nH]ccc12`: the IC50 in assay [1] is above 99.5 µM; in assay [2], above 100 µM.

In the case of `O=C(Nc1ccc2c(c1)CN[C@H]2CCO)c1cc(F)cc2[nH]ncc12`, the IC50 in assay [1] is 50.8 µM; in assay [2], 23.9 µM and 29.9 µM.

Consider `C=CC[C@H]1NCc2cc(NC(=O)c3cc(F)cc4c3CC(=O)N4)ccc21`, for which the IC50 in assay [1] was 31.9 µM; in assay [2] it was 31.9 µM and 23.6 µM.

For `Cc1cnccc1-c1cc(NC(=O)c2cc(F)cc3[nH]ncc23)cc2c1CNC2`, the IC50 in assay [1] is above 99.5 µM; in assay [2], 65.4 µM.

For `O=C(Nc1cc([C@H]2CCOC2)ccn1)c1cc(Br)cc2[nH]ccc12`, the 50% inhibitory concentration (IC50) is above 99.5 µM in assay [1] and above 100 µM in assay [2].

Consider `O=C(Nc1ccc2c(c1)CNC2)c1cc(Cl)cc2nn(C3CCC3)cc12`, for which the half-maximal inhibitory concentration (IC50) is above 99.5 µM in assay [1] and 89.2 µM in assay [2].

For the molecule `Cc1cc(-c2cc(F)cc(C(=O)Nc3ccc4c(c3)CNC4)c2)[nH]n1`, the IC50 is above 99.5 µM in assay [1] and above 100 µM in assay [2].

On to `Cn1cc2c(C(=O)Nc3ccc4c(c3)CNC4)cc(Cl)cc2n1`, for which the results for the IC50 in assay [1] and in assay [2] were above 99.5 µM and above 100 µM, respectively.

For `O=C(Nc1cc([C@H]2CCOC2)ccn1)c1cc(F)c2[nH]ccc2c1`, the IC50 in assay [1] is above 99.5 µM; in assay [2], above 100 µM.

Consider `CSCCNC(=O)[C@H](Nc1ccc2c(c1)CNC2)c1cc(Cl)cc(C2CC2)c1`, for which the IC50 in assay [1] was above 99.5 µM; in assay [2] it was above 100 µM.

For the molecule `CS(=O)(=O)N1CC[C@]2(C1)C(=O)Nc1cccc(C(=O)Nc3ccc4c(c3)CNC4)c12`, the values for the IC50 in assay [1] and in assay [2] were above 99.5 µM and above 100 µM, respectively.

On to `COc1ccc([C@H]2C[C@H](C)CN2C(=O)Nc2ccc3c(c2)CNC3)cc1`, for which the results for the IC50 in assay [1] and in assay [2] were above 99.5 µM and above 100 µM, respectively.

For the molecule `Cc1c(C(=O)Nc2cc(-c3cccnc3)ccn2)cc(CC(C)(C)C)n1C`, the IC50 was above 99.5 µM in assay [1] and above 100 µM in assay [2].

Take `CSCCCNC(=O)[C@H](Nc1ccc2c(c1)CNC2)c1cc(Cl)cc(C2CC2)c1`: the IC50 is above 99.5 µM in assay [1] and above 100 µM in assay [2].

As for `CC(C)(C)c1noc2nc(C(=O)Nc3ccc4c(c3)CNC4)ccc12`, the IC50 was above 99.5 µM in assay [1] and above 100 µM in assay [2].

As to `O=C(Nc1ccc2c(c1)CNC2)c1cc(F)cc2nn(-c3ccccn3)nc12`, the concentration for half-maximal inhibition (IC50) was 4.99 µM and 4.27 µM in assay [1]; 4.11 µM and 3.88 µM in assay [2].

On to `O=C(Nc1cc(-c2cccnc2)ccn1)c1c[nH]c2ncccc12`, for which the half-inhibitory concentration (IC50) is above 99.5 µM in assay [1] and above 100 µM in assay [2].

Take `COCCCNC(=O)[C@H](Nc1ccc2c(c1)CNC2)c1cc(Cl)cc(C2CC2)c1`: the IC50 was above 99.5 µM in assay [1] and above 100 µM in assay [2].

In the case of `O=C(Nc1ccc2c(c1)CNC2)c1ccc2c(Br)csc2c1`, the IC50 in assay [1] is 58.6 µM; in assay [2], above 100 µM.

In the case of `C=C[C@H]1NCc2cc(NC(=O)c3cc(F)cc4[nH]ncc34)ccc21`, the results for the IC50 in assay [1] and in assay [2] were 86.6 µM and 34 µM, respectively.

With `O=C(Nc1cc2c(c(-c3ccnnc3)c1)CNC2)c1cc(Cl)cc2[nH]ncc12`, the IC50 in assay [1] was above 99.5 µM; in assay [2], 98.4 µM.

On to `CC(C)(C)OC(=O)N1Cc2ccc(NC(=O)c3ccc4c(Br)csc4c3)cc2C1`, for which the IC50 in assay [1] was above 99.5 µM; in assay [2], above 100 µM.

Take `O=C(Nc1ccc2c(c1)CNC2)c1cc(F)cc(-c2ccncc2)c1`: the values for the IC50 in assay [1] and in assay [2] were above 99.5 µM and above 100 µM, respectively.
